Results from article PMC11513920, “Building Metabolically Stable and Potent Anti-HIV Thioether-Lipid Analogues of Tenofovir Exalidex: A thorough Pharmacological Analysis” (Journal of Medicinal Chemistry, 2024).
Where “and” joins values, the source holds several entries; their conditions need not be identical. Equal entries are not always repeated. Where two headings read alike, the source gives them in different places.

How the values were obtained:
[1] = Human liver microsome stability
Experimental: (§1) Human liver microsomes (HLMs, 20 mg/mL) and CD-1 mouse liver microsomes (MLMs, 20 mg/mL) were purchased from Xenotech. NADPH was purchased from Sigma-Aldrich and prepared in 10 mM stock solutions of distilled H2O (Invitrogen UltraPure). […] Test compounds and positive controls were initially dissolved in MeOH to make 10 mM stock solutions. Sample solutions were then further diluted in 70/30 MeOH/H2O to 500 μM. Next, the reactions were prepared by mixing human or mouse liver microsomes (55 μL) with potassium phosphate buffer (100 mM, 928 μL) in 1.5 mL Eppendorf tubes. The test compounds (6.6 μL of 500 μM solution) were subsequently added to the suspensions, and the reaction mixtures were incubated at 37 °C for 5 min. Afterward, the liver microsome reactions were initiated with 110 μL of 10 mM NADPH and further incubated at 37 °C for the designated time course of the study. […] Each test compound was run in tandem with positive and negative control experiments for quality assurance. Positive control reactions were conducted at a final volume of 550 μL for a single run of each time point.
(§2) For both LM and plasma stability assays, each data point was analyzed in duplicate using in-between blank washes to avoid carry over and to equilibrate the column for the subsequent runs. Averages of these duplicate for individual compounds at each time point were then normalized to the data at 0 min, representing 100% test compound remaining or 0% metabolism. Half-lives (t1/2) were calculated by plotting ln of % test compound remaining versus time and performing linear regression to determine slope.
(§3) Metabolic Stability Assays
(§4) Liver Microsome Stability
(§5) Liver Microsome Stability Assay Setup Example
(§6) Quenching Mixture: 100 µL MeOH with ISTD (2 µM d5-7-ethoxycoumarin).
(§7) Final Volume After Quenching: 200 µL (100 µL from reaction mixture + 100 µL quencher
(§8) solution; ISTD final concentration of 1.0 µM).

[2] = Mouse liver microsome stability; conditions: CD-1, mouse, microsomes
Experimental: as §1, §2, §3, §4, §5, §6, §7, §8

[3] = Mouse tissue (liver, kidney, brain) pharmacokinetics after oral dose; assay type: in vivo, male C57BL/6 mice; conditions: for TFV in brain tissue: brain, 1, 4 and 24 h after p.o. 10 mg/kg of prodrug, LLOQ 4.84 ng/mL (9.67 for 16h); for concentration at 1 h / concentration at 4 h / concentration at 24 h / Cmax at 24 h / Tmax / AUC(0-t) at 24 h: male, C57BL/6, mouse, po; for concentration at 1 h / concentration at 4 h / concentration at 24 h / Cmax at 24 h / Tmax / AUC(0-t) at 24 h / mean prodrug concentration in brain: p.o. 10 mg/kg; for Cmax at 24 h / Tmax / AUC(0-t) at 24 h: prodrug; for AUC(0-t) at 24 h: read-out: AUC0–24h; for concentration at 24 h / mean prodrug concentration in brain: 24 h; for mean prodrug concentration in brain: BLQ = below limit of quantitation
Experimental: (§9) To compare the in vivo PK profiles to TXL and our previously reported drug lead 1 (Tables S19 and S26),[39] one group of male C57BL/6 mice were administered a single oral dose (p.o., 10 mg/kg) of 2a, 16g, or 16h (refer to Experimental Methods). Additionally, a separate group of mice were given a single intravenous dose (i.v., 3 mg/kg) of each prodrug to obtain plasma clearance (Cl), volume of distribution (Vd), and oral bioavailability data. Blood was sampled at 8 time points over 8 h (i.v.) or 24 h (p.o.) postdose, and plasma was isolated via centrifugation. Tissues (liver, kidney, and brain) were also harvested and homogenized at 3 time points over 24 h after oral dose. The concentrations of prodrug and TFV metabolite in each of these samples was then quantified using LC–MS/MS methodology.
(§10) Healthy male C57BL/6 mice (8–12 weeks old) weighing 20–30 g were procured from Global, India. Three mice were housed in each cage. Temperature and humidity were maintained at 22 ± 3 °C and 30–70%, respectively, and illumination was controlled to provide for 12 h light and 12 h dark cycles. Temperature and humidity were recorded by an autocontrolled data logger system. All animals were provided a laboratory rodent diet (Envigo Research private Ltd., Hyderabad). Reverse osmosis H2O treated with ultraviolet light was provided ad libitum.
(§11) Male mice were divided into two groups (n = 18 total, n = 9 per treatment group, n = 3 per time point, sparse sampling). One group was intravenously administered a solution of 2a, 16g, and 16h in 10% PEG-300, 10% Solutol HS-15, and 80% saline at 3 mg/kg with a dosing volume of 5 mL/kg. The second group was administered a solution of 2a, 16g, and 16h in 10% EtOH and 90% olive oil at 10 mg/kg via oral gavage with a dosing volume of 10 mL/kg.
(§12) Blood samples (approximately 60 μL) were collected from retro-orbital plexus under light isoflurane anesthesia such that the samples were obtained predose, as well as at eight time points post dose: 0.1, 0.25, 0.5, 1, 2, 4, 6, and 8 (i.v.) and 0.25, 0.5, 1, 2, 4, 8, 12, and 24 h (p.o.). Immediately after blood collection, plasma samples were harvested by centrifugation at 4000 rpm and 4 °C for 10 min and stored at −70 °C until LC–MS/MS analysis. Following blood collection from p.o. group, liver, kidney, and brain samples were collected (n = 3 per treatment group per time point) at 1, 4, and 24 h post dose. After isolation, tissue samples were rinsed three times with ice-cold saline and dried with blotting paper. Next, the tissue samples were homogenized using ice-cold PBS (pH = 7.4), and the resulting homogenates were stored below −70 °C until LC-MS/MS analysis. The total homogenate volume was 3 times the brain weight and 5 times the liver and kidney weight.
(§13) Areas under the concentration–time curves (AUC0–8h and AUC0–24h) were calculated via the linear trapezoidal rule[65] using GraphPad Prism v9. Furthermore, terminal elimination rate constants k were determined using linear regression (slope = −k) of the terminal portion of semilog-transformed concentration–time curves (Figures S44, S45, S47, S48, S50, and S51).

[4] = Mouse plasma pharmacokinetics after oral dose; assay type: in vivo, male C57BL/6 mice; conditions: for bioavailability / bioavailability at 24 h / concentration at 0.25 h / concentration at 0.5 h / concentration at 1 h / concentration at 2 h / concentration at 4 h / concentration at 8 h / concentration at 12 h / half-life at 24 h / Cmax at 24 h / Tmax / AUC(0-t) at 24 h: male, C57BL/6, mouse; for bioavailability / bioavailability at 24 h / concentration at 0.25 h / concentration at 0.5 h / concentration at 1 h / concentration at 2 h / concentration at 4 h / concentration at 8 h / concentration at 12 h / half-life at 24 h / Cmax at 24 h / Tmax / AUC(0-t) at 24 h / Vd / k (terminal elimination rate constant): plasma; for bioavailability: oral; for bioavailability / bioavailability at 24 h: p.o. 10 mg/kg vs i.v. 3 mg/kg, read-out: %F (oral bioavailability); for bioavailability at 24 h / concentration at 0.25 h / concentration at 0.5 h / concentration at 1 h / concentration at 2 h / concentration at 4 h / concentration at 8 h / concentration at 12 h / half-life at 24 h / Cmax at 24 h / Tmax / AUC(0-t) at 24 h: po; for concentration at 0.25 h / concentration at 0.5 h / concentration at 1 h / concentration at 2 h / concentration at 4 h / concentration at 8 h / concentration at 12 h / half-life at 24 h / Cmax at 24 h / Tmax / AUC(0-t) at 24 h / mean prodrug concentration in plasma / Vd / k (terminal elimination rate constant): p.o. 10 mg/kg; for concentration at 0.25 h / concentration at 0.5 h / concentration at 1 h / concentration at 2 h / concentration at 4 h / concentration at 8 h / concentration at 12 h: read-out: mean prodrug concentration in plasma; for Cmax at 24 h / Tmax / AUC(0-t) at 24 h: prodrug; for AUC(0-t) at 24 h: read-out: AUC0–24h; for mean TFV concentration in plasma: p.o. 10 mg/kg of prodrug, LLOQ 4.84 ng/mL; for concentration at 0.25 h / mean TFV concentration in plasma: 0.25 h; for mean prodrug concentration in plasma: 24 h, BLQ = below LLOQ (0.58 ng/mL 2a, 0.62 ng/mL 16g); for k (terminal elimination rate constant): 10 mg/kg
Experimental: as §9, §10, §11, §12, §13

[5] = test system: HepaRG cells; assay: HepaRG cellular metabolic stability; conditions: after 3 h loading at 20 μM, 37 °C
Description: Naturally, due the metabolic complexity of HepaRG cells, we specifically analyzed prodrug cellular uptake and stability, as represented by Cmax and intrinsic clearance (Clint,u) accordingly (Figure 7 and Table 9).
The HepaRG cell line (HPRGC10, Thermo Fisher Scientific) was used to evaluate the cellular permeability and metabolic stability for select final compounds in vitro. The cells were initially thawed with working media composed of HepaRG Thaw, Plate, & General Purpose Medium Supplement (HPRG670), Williams Medium E (100 mL), and GlutaMax (1 mL), all purchased from Thermo Fisher Scientific. […] After the thawing medium was aspirated from each well, the cells were cultured for an additional 6 days with working media consisting of HepaRG Maintenance/Metabolism Medium Supplement (HPRG720), Williams Medium E (500 mL), and GlutaMax (1 mL), all purchased from Thermo Fisher Scientific. Upon completing the 7-day culture period, HepaRG cells were plated in enough wells to allow for duplicate analysis of prodrugs in two independent cellular uptake or metabolic stability experiments. All studied compounds were formulated with human serum albumin (HSA, 5:1 compound to HSA molar ratio) and subsequently diluted to a 20 μM final concentration with assay medium composed of serum-free INVITROGRO HI Medium and TORPEDO Antibiotic Mix purchased from BioIVT. For cellular uptake determinations, the maintenance/metabolism medium was first aspirated from each well, and then the plated cells were spiked with 1.0 mL of test compound stock solution. Subsequently, the plate was incubated at 37 °C under 5% CO2 environment over the desired time course (seven data points/compound). Blank wells not treated with prodrug were included in assay runs as controls and initial time points (0 min). At each time point, the test compound solution was removed from the appropriate wells, and the plated cells were washed with 1.0 mL of DPBS twice. The HepaRG cells were then extracted with 500 μL of cold ISTD solution (1 μM 7-ethoxy-d5-coumarin in 70/30 MeOH/H2O), and the quenched aliquots were centrifuged at 15,000 g for 10 min at 4 °C. […] After obtaining prodrug Cmax and Tmax values from the cellular uptake assay, HepaRG metabolic stability was then assessed. Following the initial 7-day culture procedure, the maintenance/metabolism medium was aspirated from each well, and the plated cells were spiked with 1.0 mL of test compound stock solution. […] The test compound solution was then removed from each well and replaced with untreated dilution medium (i.e., serum-free INVITROGRO HI Medium and TORPEDO Antibiotic Mix), initializing the stability determination. The HepaRG plate was once more incubated at 37 °C under 5% CO2 atmosphere over the desired time course (nine data points/compound), and sample preparation and analysis were handled in identical fashion to cellular uptake experiments.

[6] = brain, read-out: mean prodrug concentration in brain
[7] = kidney, read-out: mean prodrug concentration in kidney
[8] = liver, read-out: mean prodrug concentration in liver

Row | SMILES | half-life at 3 μM [2] [h] | remaining at 2 h, 3 μM [2] [%] | TFV in brain tissue [3] | concentration at 1 h [3, 6] [ng/mL] | concentration at 4 h [3, 6] [ng/mL] | concentration at 1 h [3, 7] [ng/mL] | concentration at 4 h [3, 7] [ng/mL] | concentration at 24 h [3, 7] [ng/mL] | concentration at 1 h [3, 8] [ng/mL] | concentration at 4 h [3, 8] [ng/mL] | concentration at 24 h [3, 8] [ng/mL] | Cmax at 24 h ([3]; brain) [ng/mL] | AUC(0-t) at 24 h ([3]; brain) [ng·h/mL] | Cmax at 24 h ([3]; kidney) [ng/mL] | AUC(0-t) at 24 h ([3]; kidney) [ng·h/mL] | Cmax at 24 h ([3]; liver) [ng/mL] | Tmax ([3]; liver) [h] | AUC(0-t) at 24 h ([3]; liver) [ng·h/mL] | mean prodrug concentration in brain [3] | bioavailability [4] [%] | also measured
1 | CCCCCCCCCCCCCCCCSCCCOP(=O)(O)CO[C@H](C)Cn1cnc2c(N)ncnc21.N [2a] | > 2 | > 95 | BLQ | 43.8 | 2.19 | 581 | 385 | 44.4 | 1250 | 395 | 3.95 | 43.8 | 69 | 581 | 5740 | 1250 | 1 | 6450 | BLQ | 20 | HLM t1/2 ([1]; HLM 1 mg/mL, 3 μM compound, NADPH, 37 °C, 120 min course): 0.7 h and 0.695 ± 0.0383 h; Tmax ([3]; brain): 1 h; Tmax ([3]; kidney): 1 h; bioavailability at 24 h [4]: 19.3%; concentration at 0.25 h [4]: 29.6 ng/mL; concentration at 0.5 h [4]: 51.8 ng/mL; concentration at 1 h [4]: 73.3 ng/mL; concentration at 2 h [4]: 48 ng/mL; concentration at 4 h [4]: 8.34 ng/mL; concentration at 8 h [4]: 7.1 ng/mL; concentration at 12 h [4]: 7.6 ng/mL; half-life at 24 h [4]: 3.49 h; Cmax at 24 h [4]: 73.3 ng/mL; Tmax [4]: 1 h; AUC(0-t) at 24 h [4]: 219 ng·h/mL; mean TFV concentration in plasma [4]: BLQ; mean prodrug concentration in plasma [4]: BLQ; Vd [4]: 44.4 L/kg; k (terminal elimination rate constant) [4]: 0.1985 and 0.199
2 | C[C@H](Cn1cnc2c(N)ncnc21)OCP(=O)(O)OCCCSCCCCCCCCCCCCc1ccc(F)cc1.N [16g] | > 2 | 88 | BLQ | 3.24 | 5.74 | 310 | 602 | 25.4 | 5330 | 4810 | 24.8 | 5.74 | 13.5 | 602 | 7650 | 5330 | 1 | 63600 | BLQ | 20 | remaining at 2 h, 3 μM ([1]; human, microsomes, HLM % remaining, relative percent remaining of prodrug at 120 min): 69%; half-life at 3 μM ([1]; human, microsomes, HLM t1/2, HLM 1 mg/mL, 3 μM compound, NADPH, 37 °C, 120 min course): > 2 h; bioavailability at 24 h [4]: 20.9%; concentration at 0.25 h [4]: 17 ng/mL; concentration at 0.5 h [4]: 43 ng/mL; concentration at 1 h [4]: 58.6 ng/mL; concentration at 2 h [4]: 55.9 ng/mL; concentration at 4 h [4]: 16 ng/mL; concentration at 8 h [4]: 11.2 ng/mL; concentration at 12 h [4]: 10.5 ng/mL; half-life at 24 h [4]: 4.19 h; Cmax at 24 h [4]: 58.6 ng/mL; Tmax [4]: 1 h; AUC(0-t) at 24 h [4]: 260 ng·h/mL; mean TFV concentration in plasma [4]: BLQ; mean prodrug concentration in plasma [4]: BLQ; Vd [4]: 48.7 L/kg; k (terminal elimination rate constant) [4]: 0.1654 and 0.165; HepaRG t1/2 [5]: 0.778 ± 0.005 h
